Test results from ChEMBL document CHEMBL3886753, “Heterocyclic carboxylic acids as activators of soluble guanylate cyclase” (2016).

experiment: Homogeneous Time Resolved Fluorescence Assay: The sGC cellular activator assay is performed in the presence and absence of 50% human serum (HS) using Chinese hamster ovary cells that have been stably transfected to express the human soluble guanylate cyclase alpha 1 and beta 1 subunits (sGC). Cells are preincubated with 40 microM 1H-[1,2,4]oxadiazolo[4,3-a]quinoxalin-1-one (ODQ), an sGC inhibitor, for one h in buffer containing 0.1% bovine serum albumin and 3-isobutyl-1-methylxanthine (IBMX). Concentration response curves are prepared for test compounds in DMSO. An intermediate dilution of the compounds is performed in either buffer containing IBMX or type AB HS containing IBMX. Diluted compounds are added to cells and they are incubated at room temperature for thirty min. cGMP is measured using a CisBio homogeneous time resolved fluorescence kit and the EC50 is calculated for each compound.

Compound | EC50 [nM]
O=C(O)[C@@]12CCN(c3nccc(-c4ccccc4OCc4ccc5c(c4)CCN(C4CCOCC4)C5)n3)C[C@@H]1C2 | 32
Cc1cccc(-c2csc(N3CC[C@@]4(C(=O)O)C[C@H]4C3)n2)c1OCc1cnc2c(c1)CCN(C1CCOCC1)C2 | 209
Cc1cc(COc2c(C)cccc2-c2csc(N3CC[C@@]4(C(=O)O)C[C@H]4C3)n2)cc2c1CN(CC1COCCO1)CC2 (stereo partly drawn) | 11
Cc1cccc(-c2csc(N3CC[C@@]4(C(=O)O)C[C@H]4C3)n2)c1OCc1ccc2c(c1)CCN(C1CCOC1)CC2 (stereo partly drawn) | 11
Cc1ccc(OCc2ccc3c(c2C)CCN(C2COC2)CC3)c(-c2cccc(N3CC4C[C@]4(C(=O)O)C3)n2)c1 (stereo partly drawn) | 50
CO[C@@H]1CN(c2nc(-c3cc(F)cc(C)c3OCc3ccc4c(c3)[C@H](C)CN(C3CCOCC3)CC4)cs2)CC[C@@H]1C(=O)O | 11
Cc1cccc(-c2csc(N3CC[C@@]4(C(=O)O)C[C@H]4C3)n2)c1OCc1ccc2c(c1C)CCN(C1COC1)C2 | 17
CO[C@H]1CN(c2nc(-c3cc(C)ccc3OCc3ccc4c(c3C)CCN(C[C@@H]3CCOC3)C4)cs2)CC[C@H]1C(=O)O | 17
Cc1cccc(-c2csc(N3CC[C@@]4(C(=O)O)C[C@H]4C3)n2)c1OCc1cnc2c(c1)CCN(C1CCOC1)C2 (stereo partly drawn) | 453
Cc1ccc(OCc2ccc3c(c2)CCN(C2COC2)C3)c(-c2csc(N3CC[C@@]4(C(=O)O)C[C@H]4C3)n2)c1 | 73
Cc1cccc(-c2csc(N3CC[C@@]4(C(=O)O)C[C@H]4C3)n2)c1OCc1ccc2c(c1C)CCN(C1CCOCC1)C2 | 11
Cc1ccc(OCc2ccc3c(c2C)CCN(C2CCOCC2)C3)c(-c2ccnc(N3CC[C@@]4(C(=O)O)C[C@H]4C3)n2)c1 | 12

The next compounds have a lower EC50 than those just listed; values first:

EC50 [nM] | Compound
6 | Cc1cccc(-c2csc(N3CC[C@@]4(C(=O)O)C[C@H]4C3)n2)c1OCc1ccc2c(c1C)CCN(C1COC1)CC2
10 | Cc1cccc(-c2csc(N3CC[C@@]4(C(=O)O)C[C@H]4C3)n2)c1OCc1ccc2c(c1)CCN(C1CCOCC1)CC2
2 | Cc1cc(COc2c(C)cccc2-c2csc(N3CC[C@@]4(C(=O)O)C[C@H]4C3)n2)cc2c1CN(C1COC1)CC2
2 | Cc1cccc(-c2csc(N3CC[C@@]4(C(=O)O)C[C@H]4C3)n2)c1OCc1ccc2c(c1C)CCN(C1CCOCC1)CC2
6 | CO[C@@H]1CN(c2cccc(-c3cccc(C)c3OCc3ccc4c(c3C)CCN(C3CCOCC3)CC4)n2)CC[C@@H]1C(=O)O
5 | CO[C@@H]1CN(c2nc(-c3cc(F)cc(C)c3OCc3ccc4c(c3)[C@@H](C)CN(C3CCOCC3)CC4)cs2)CC[C@@H]1C(=O)O
